According to a melting point compilation (Tetko et al.; mined from patent text by program, amines drawn as free bases though some values may be those of a salt):

melting point [°C] | Structure (SMILES)
238 to 239 | O=c1[nH]cnc2cc(Cl)sc12
225 to 226 | c1ccc(-c2nc3cnccc3[nH]2)cc1
226 to 228 | CCOc1ccccc1Nc1ncc(C(=O)O)c(=O)[nH]1
110 to 112 | Cn1cc(OS(C)(=O)=O)c(=O)c2ccc(OCC(F)(F)F)cc21
124 to 125 | CCSc1cc2c(cc1OC)CCn1c-2cc2c1C(=O)N(C(C)(C)C)CCCC2
139 to 140 | O=C1C(O)OCN1c1ccc(Cl)c(Br)c1 (configuration not stated)
172 to 175 | COC(=O)c1sccc1Nc1ccc(F)cc1[N+](=O)[O-]
114 to 115 | O=C(CCCc1ccc(-c2ccc(Cl)cc2)cc1)c1ccc(CN2CCCC2)cc1
48 to 49 | COC1=CC(=O)C(OC)=C(CCCCCC2=C(OC)C(=O)C(C)=C(OC)C2=O)C1=O
210 to 211 | CCN(CC)CC1CCN(c2c(F)cc3c(=O)c(C(=O)O)cn(CC)c3c2F)C1 (configuration not stated)
214 to 216 | O=C1c2ccc(Nc3ccccc3)nc2CC2CCCCC12 (configuration not stated)
182 to 183 | C=Cc1cccc(-n2ncc(-c3ccc(S(C)(=O)=O)cc3)c(-c3ccc(F)cc3)c2=O)c1
136 to 138 | COC(=O)N1CCc2c(O)noc2C1
182 to 184 | N#CC1=Cc2ccccc2C(N2CCN(N=Cc3ccccn3)CC2)c2ccccc21 (configuration not stated)
151 to 153 | CCOc1cc([C@@H](CS(C)(=O)=O)N2C(=O)c3cccc(NC(=O)COC)c3C2=O)ccc1OC
176 | Cc1ccc2c(C#N)cn(-c3ccc(C(C)C)cc3Br)c2n1
336 to 340 | C=CCNc1nc(C2C(=O)Nc3ccc(Br)cc32)c2cn(C)nc2n1 (configuration not stated)
141 to 143 | [N-]=[N+]=NC1CC(n2cnc3c(N4CCC4)nc(N)nc32)OC1CO (configuration not stated)
170 to 174 | O=C1Nc2ccccc2OCC1(Cl)Cl
94 to 96 | CCCNCCCC(c1ccccc1)c1ccccc1
89 to 90 | CCc1cc(C)nc2c(C)ccc([N+](=O)[O-])c12
115 | CC(=O)Nc1c(C#N)cnn1-c1c(Cl)cc(Cl)c(Cl)c1Cl
220 | Cc1ccc(C(=O)Nc2ccc3ccc(Cl)nc3n2)s1
134 to 135 | CCCCNc1nc(-c2ccc(F)cc2)c(-c2ccc(S(C)(=O)=O)cc2)s1
130 to 133 | Nc1nc(Cl)cc(NCc2ccccc2F)n1

melting point [°C] | Structure (SMILES)
> 250 | O=C(c1cc2ccccc2s1)N1CCc2[nH]c3c(cnc4cc(Cl)ccc43)c2C1
152 to 155 | COc1ccc2c(c1)C(=O)C(O)=C([N+](=O)[O-])C2=O
68 to 70 | Cc1cc(Oc2ccc(C(F)(F)F)cc2[N+](=O)[O-])nn1C(=O)OC(C)(C)C
> 300 | Nc1cc(C(=O)O)ccc1-c1nnc(-c2ccc(C(F)(F)F)cc2)o1
270 to 272 | Nc1ncnc2c1nc(O)n2Cc1ccc(F)cc1
103 to 104 | CN(C)C=C1C(=O)N(C)C(=O)N1c1cccc(C(F)(F)F)c1
175 to 176 | CN1CNC(=S)N(c2ccccc2)C1
228 to 229 | CC(C)(C)c1ccc(Sc2cccc3c2C(=O)c2c(Sc4ccc(C(C)(C)C)cc4)ccc(Sc4ccc(C(C)(C)C)cc4)c2C3=O)cc1
248 to 249 | CCC(=S)C1=C(C)NC2=C(C(=O)c3ccccc32)C1c1ccccc1 (configuration not stated)
77 to 78 | CC(C)NCC(O)COc1ccc(CCO)cc1 (configuration not stated)
165 to 166 | CC(C)c1cccc(C(C)C)c1NC(=O)N(Cc1ccc(N(C)C)cc1)c1ccc(Br)cc1
228 to 233 | CC(C)c1c(C(=O)Nc2ccccc2)c(-c2ccccc2)c(-c2ccc(F)cc2)n1CCCC(O)C(O)CC(=O)N(c1ccccc1)c1ccccc1 (configuration not stated)
204 | CN1CCC(OC2c3ccccc3C(=O)N2c2ccc3ccc(Cl)nc3n2)CC1 (configuration not stated)
58 to 59 | CCOC(=O)/C(=C\Nc1ccccc1OC)c1ccc(OC)cc1
204 to 205 | Cc1ccc(OCc2c(F)cccc2Cl)c(NC(=S)Nc2ccc(Cl)cc2)n1
144 | COc1ccc(C(O)(c2ccc3nc(Cl)nc(-c4cccc(Cl)c4)c3c2)c2cncn2C)cc1 (configuration not stated)
123 to 139 | CC1CCC(CNc2cc3oc(=O)[nH]c3cc2F)C(C)O1 (configuration not stated)
77 to 78 | CC(=O)n1ccc2c(C=O)ccc(OCc3ccccc3)c21
232 to 240 | CN1CCc2c(-c3ccc(S(=O)(=O)N(C)C)cc3)cc3c(c2C1)N(C)C(=O)C3=O
158 to 159 | Cc1[nH]c2ccccc2c1C1=C(Cl)C(=O)C=C(Cl)C1=O
158 to 159 | COC(=O)c1cc(C(=O)N2CCC(O)CC2)cc(-n2cccc2)c1
231 to 234 | O=C(O)c1ccc(CNS(=O)(=O)c2ccc(F)cc2)cc1
128 to 129 | CC(=O)N(CCCn1cncn1)C1=Nc2cccc3cccc1c23
204 to 206 | CCCOc1ccccc1-c1nc2nc(NCCO)ncc2c(=O)[nH]1
151 to 152 | Nc1ccc2ncc(Br)cc2c1

melting point [°C] | Structure (SMILES)
115 to 117 | Cc1cccc(NS(=O)(=O)c2cc(S(=O)(=O)Nc3cccc(C)c3)c3cc(O)ccc3c2)c1
90 to 92 | Fc1ccc2nc(CBr)ccc2c1
27 to 28 | CCCCCCCCCCCCCCOCC(CI)(CI)COCCCCCCCCCCCCCC
143 | Cc1ccc(S(=O)(=O)N2CCCC2c2ccccc2F)cc1 (racemic)
152 to 156 | CCn1cc(C2(c3cccc(-c4cccnc4F)c3)N=C(N)N(C)C2=O)cc1C=O (configuration not stated)
125 to 128 | CC(=O)C1(c2ccccc2)CCN(C(=O)C(c2ccccc2)n2cnc3[nH]ncc3c2=S)CC1 (configuration not stated)
158 | O=[N+]([O-])C(c1ccccc1)(c1ccccc1)[N+](=O)[O-]
125 to 127 | NC(=O)c1cc([N+](=O)[O-])cnc1C(Cl)Cl
208 to 210 | CC(C)c1ccc(S(=O)(=O)Nc2nc(-c3cccc([N+](=O)[O-])c3)cs2)nc1
101 to 102 | CCc1cccnc1NC(=O)OC(C)(C)C
108 to 111 | COc1ccccc1OC(=O)c1cnoc1C
133 to 138 | CC(Cc1sc2ccc(Cl)cc2c1Cl)=NO
103 to 106 | N#CC(C=O)c1cccc(C(F)(F)F)c1 (configuration not stated)
123 to 124 | CCCCOc1cc(CCC(=O)O)n(Cc2ccc(Cl)cc2Cl)n1
127 to 128 | Cn1nc(Cc2ccc(O)c(Cl)c2Cl)c(Cl)c1OC(F)F
164 to 165 | CCn1c2ccccc2c2cc(C=C(C#N)c3ccc(C(F)(F)F)cc3)ccc21
250 to 252 | Nc1cc(O)c2c(c1)C(=O)c1cccc(O)c1C2=O
> 250 | O=C1CCCC2=C1C(c1ccncc1)C1=C(CCS1)N2 (configuration not stated)
154 to 156 | CC(C)(C)OC(=O)N1C(=O)C2(COc3cc4c(cc32)OCO4)c2c(Br)cccc21 (configuration not stated)
115 to 117 | CC1(C)CC(=NO)c2cc(Br)ccc21
87 to 94 | CCCC/C=C\c1c([C@H](O)[C@H](CCCC)NC(=O)[C@H](CC(C)C)NC(=O)OCc2ccccc2)c1=O
83 to 85 | CC(C)CC(C)c1ccccc1NC(=O)c1cn(C)cc1C(F)(F)F (configuration not stated)
26 to 28 | BrCCCCCCCCCCCCN1CCN(c2ccccc2)CC1
194 to 195 | Cc1nn(-c2ccc(F)cc2)cc1C(=O)O
134 | CC(C)CCn1cc(-c2cnc3c(c2)N(Cc2c(F)ccc(F)c2Cl)CCN3)cn1

melting point [°C] | Structure (SMILES)
174 to 178 | CCOCOC(=O)c1c(I)cc(I)c(NC(C)=O)c1I
219 to 221 | COc1ccc(-c2cc(C(F)(F)F)ccc2/C=C/C(=O)Nc2ccc3[nH]ccc3c2)cn1
193 to 195 | COc1ccccc1CSc1nc2cnccc2[nH]1
204 to 206 | COc1ccc(Cn2c(=S)[nH]c(=S)c3[nH]c(C(C)C)nc32)cc1OC1CCCC1
155 to 159 | Clc1cn2cc(Br)ccc2n1
130 to 131 | CN(C)C(=O)C=CC(=O)N(C)C
95 to 96 | CC(=O)S[C@@H]1CCO[C@@H](c2ccccc2)O1 (relative stereo)
110 to 112 | CCCCN(C(=O)C1CCCCC1)c1nn(C)cc1Cl
144 | CCOC(=O)CC1C(=O)N(CCc2c[nH]c3ccccc23)CCN1C(=O)c1ccccc1 (configuration not stated)
247 to 249 | COc1cc(-c2nc(-c3ccc(N(C)C)cc3)c(C)s2)cc(OC)c1OC(C)=O
146 to 147 | C=Cc1ccc(CN2C(=O)c3ccccc3C2=O)c2ccccc12
159 to 161 | O=C1OCCC12Sc1ccc(S(=O)(=O)N3CCCCC3)cc1C2=O (configuration not stated)
58 to 60 | O=[N+]([O-])c1ccc(Sc2ccccc2)c(CCl)c1
138 to 140 | CCCCNS(=O)(=O)CC(O)(CCCC)C1OC(C)(C)N(C(=O)OC(C)(C)C)C1CC1CCCCC1 (configuration not stated)
124 to 125 | CCCCCCCC(=O)N(C)Cc1cccc(-c2ccc(C=CC(=O)O)cc2)c1
92 to 94 | CC(=O)N1CCC(OC(CO)c2ccccc2)CC1 (configuration not stated)
225 to 229 | Cn1cc(CCO)c2c3c(c(-c4ccccc4Cl)cc21)C(=O)NC3=O
182 to 183 | O=C(O)c1cccc(-c2ccn(-c3ccc(OC(F)F)cc3)n2)c1
149 to 151 | COc1ccc(Sc2nc(-c3ccc(OC)cc3)cnc2N)cc1
155 to 157 | Cc1[nH]c(C(=O)Nc2ccc3ncsc3c2)c(C)c1-c1nc2ccc(C(=O)c3ccccc3)cc2[nH]1
164 to 165 | CC(C)c1nc(-c2ccccc2)n(-c2ccc(F)cc2)c1C=C(Br)Br
67 to 69 | COC(=O)COc1cc(C(C)C)c(SC#N)cc1C
133 | Cc1cc(OCCc2nc(-c3ccccc3)oc2C)ccc1OCC(=O)O
175 to 177 | CC(C)(C)OC(=O)NCC1=CC(c2ccccc2)Cc2c1ccc(O)c2O (configuration not stated)

Structure (SMILES) | melting point [°C]
CN1CN(c2ccccc2)C2(CCN(CCCC(=O)c3ccc(F)cc3I)CC2)C1=O | 115 to 118
CN(C)C(=C[N+](=O)[O-])NCc1ccc(Cl)nc1 | 124 to 125
NN1CCN(CC(O)c2c[nH]c3ccccc23)CC1 (configuration not stated) | 174 to 177
